≈ marks a conversion by molar mass, not a printed value. Values belong to the molecule of their own block, whether it stands above or below them.
Assays:
[1] = target: T1, Renin (Homo sapiens) (UniProt P00797); assay: (§1) Inhibition of human recombinant renin expressed in FreeStyle 293 expression system at 100 uM using FITC-epsilonAcp-Asp-Arg-Val-Tyr-Ile-His-Pro-Phe-His-Leu-Val-Ile-His-Asn-Arg-NH2 as substrate preincubated for 15 mins followed by substrate addition measured after 30 mins by microchip type capillary electrophoresis method relative to control
T1 sequence (whole entry): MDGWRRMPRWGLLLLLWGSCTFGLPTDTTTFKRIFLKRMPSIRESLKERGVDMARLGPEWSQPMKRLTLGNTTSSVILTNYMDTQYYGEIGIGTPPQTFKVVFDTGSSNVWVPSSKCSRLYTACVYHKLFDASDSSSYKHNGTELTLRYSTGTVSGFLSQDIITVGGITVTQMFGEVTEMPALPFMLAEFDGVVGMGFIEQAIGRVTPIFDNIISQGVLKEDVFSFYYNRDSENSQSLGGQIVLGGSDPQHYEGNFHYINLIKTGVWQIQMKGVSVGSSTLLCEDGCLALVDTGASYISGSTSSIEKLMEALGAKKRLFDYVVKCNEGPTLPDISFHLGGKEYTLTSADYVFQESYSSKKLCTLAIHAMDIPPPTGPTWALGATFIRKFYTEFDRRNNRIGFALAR

[2] = target: T2, Renin (Homo sapiens, UniProt P00797); assay: as §1, with “system” for “system at 100 uM”, “method” for “method relative to control”
T2 sequence (P00797 whole entry): T1 sequence (whole entry)

[3] = target: hERG (KCNH2) (Homo sapiens, UniProt Q12809); assay: Inhibition of human ERG expressed in CHO cells assessed as suppression of peak tail currents incubated for 5 mins by patch clamp method; assay type: cell-based; conditions: CHO cells that express human ERG
Chain of hERG (KCNH2) (Q12809 whole entry): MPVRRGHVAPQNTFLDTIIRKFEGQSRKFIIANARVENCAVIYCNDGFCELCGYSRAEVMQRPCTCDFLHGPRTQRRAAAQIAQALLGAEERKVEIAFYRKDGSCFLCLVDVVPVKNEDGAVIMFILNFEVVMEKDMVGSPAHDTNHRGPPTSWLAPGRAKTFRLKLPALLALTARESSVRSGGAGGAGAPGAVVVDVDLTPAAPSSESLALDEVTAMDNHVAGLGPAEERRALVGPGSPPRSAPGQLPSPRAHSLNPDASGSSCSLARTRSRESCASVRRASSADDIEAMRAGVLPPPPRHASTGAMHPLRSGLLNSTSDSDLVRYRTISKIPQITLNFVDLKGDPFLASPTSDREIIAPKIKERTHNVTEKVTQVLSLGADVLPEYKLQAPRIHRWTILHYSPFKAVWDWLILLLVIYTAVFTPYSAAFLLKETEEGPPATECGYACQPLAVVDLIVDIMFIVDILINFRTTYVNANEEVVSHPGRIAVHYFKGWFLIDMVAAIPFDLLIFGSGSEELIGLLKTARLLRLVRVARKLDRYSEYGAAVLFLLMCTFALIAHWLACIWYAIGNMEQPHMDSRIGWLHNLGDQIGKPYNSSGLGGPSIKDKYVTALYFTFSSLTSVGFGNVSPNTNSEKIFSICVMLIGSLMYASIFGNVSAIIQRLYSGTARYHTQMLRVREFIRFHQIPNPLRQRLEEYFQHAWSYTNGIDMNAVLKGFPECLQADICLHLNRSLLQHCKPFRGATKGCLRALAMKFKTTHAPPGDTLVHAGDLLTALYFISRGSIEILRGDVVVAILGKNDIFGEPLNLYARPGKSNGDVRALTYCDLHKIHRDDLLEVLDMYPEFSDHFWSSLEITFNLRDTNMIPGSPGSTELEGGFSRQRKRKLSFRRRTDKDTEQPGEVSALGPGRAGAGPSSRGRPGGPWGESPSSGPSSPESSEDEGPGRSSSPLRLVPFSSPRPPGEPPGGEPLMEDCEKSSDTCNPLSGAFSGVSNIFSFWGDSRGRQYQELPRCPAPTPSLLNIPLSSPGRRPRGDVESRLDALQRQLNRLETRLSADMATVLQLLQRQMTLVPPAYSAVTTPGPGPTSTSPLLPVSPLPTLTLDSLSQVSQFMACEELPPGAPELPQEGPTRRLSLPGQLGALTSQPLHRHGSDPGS

[4] = target: CYP3A4 (Homo sapiens, UniProt P08684); assay: Inhibition of CYP3A4 in human liver microsomes using testosterone as substrate assessed as 6beta-hydroxytestosterone formation at 10 uM after 60 mins by LC/MS/MS analysis relative to control; assay type: ADME; conditions: probe testosterone
Chain of CYP3A4 (P08684 whole entry): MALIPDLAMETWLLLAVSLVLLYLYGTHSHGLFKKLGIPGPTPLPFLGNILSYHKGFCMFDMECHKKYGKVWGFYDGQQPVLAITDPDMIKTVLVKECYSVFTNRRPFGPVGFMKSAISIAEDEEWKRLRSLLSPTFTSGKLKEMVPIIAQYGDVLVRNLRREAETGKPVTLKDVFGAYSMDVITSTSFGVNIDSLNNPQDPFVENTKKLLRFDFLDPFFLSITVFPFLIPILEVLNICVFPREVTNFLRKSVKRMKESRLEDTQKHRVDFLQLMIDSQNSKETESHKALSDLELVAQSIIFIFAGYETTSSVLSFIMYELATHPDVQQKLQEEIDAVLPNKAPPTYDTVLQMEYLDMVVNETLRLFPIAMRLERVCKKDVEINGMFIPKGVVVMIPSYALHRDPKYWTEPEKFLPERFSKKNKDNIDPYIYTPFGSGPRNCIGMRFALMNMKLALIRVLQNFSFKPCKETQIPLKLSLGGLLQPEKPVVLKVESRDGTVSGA

[5] = Intrinsic clearance in human liver microsomes assessed per mg of protein at 1 umol/l after 15 to 30 mins in presence of NADPH-generating system by LC/MS/MS analysis; assay type: ADME; conditions: read-out: CLH
[6] = Aqueous solubility of the compound in pH 6.8 Japanese pharmacopoeia second fluid by HPLC analysis; assay type: ADME
[7] = Cytotoxicity against human HepG2 cells assessed as ATP contents at 30 uM after 1 day by ATPLiteTM-M assay relative to control; assay type: toxicity, cell-based; conditions: read-out: Activity

SMILES: CCN(CC)C(=O)c1ccc(C)nc1NCc1ccco1
inhibition [1]: 31%

SMILES: NCc1ccco1
IC50 [2]: > 300 µM

SMILES: c1coc(CNc2ncnc3sc4c(c23)CCCC4)c1
inhibition at 5 min [3]: 62.8% | inhibition at 1 h, 10 µM [4]: 70.2% | microsomal CLint at 1 µM [5]: 187 µL/min/mg | solubility [6]: 5.2 µg/mL (≈ 18.2 µM) | viability at 24 h, 30 µM [7]: 31.4%

SMILES: Cc1ccc(C(=O)N2CCCCCC2)c(NCc2ccco2)n1
inhibition at 5 min [3]: 7.5% | inhibition [1]: 70% | inhibition at 1 h, 10 µM [4]: 35.6% | microsomal CLint at 1 µM [5]: 85 µL/min/mg | solubility [6]: 50 µg/mL (≈ 160 µM) | viability at 24 h, 30 µM [7]: 91.6%

Next, values leading:

inhibition [1]: < 30%
SMILES: Cc1ccc(C(=O)NC(C)(C)c2ccccc2)c(NCc2ccco2)n1

inhibition [1]: 65%
SMILES: Clc1cncc(NCc2ccco2)n1

IC50 [2]: 11 µM | inhibition [1]: 86%
SMILES: CCC1CCCCN1C(=O)c1ccc(C)nc1NCc1ccco1 (stereo not drawn)

IC50 [2]: > 300 µM
SMILES: Nc1ncnc2sc3c(c12)CCCC3

Reference: ChEMBL document CHEMBL3856281, “Novel approach of fragment-based lead discovery applied to renin inhibitors” (Bioorg Med Chem, 2016)
